According to patent US20020183277A1, “Combination of vitamin D analogue and pyrimidine nucleoside analogue” (priority 2001, published 2002):

Tests used:
cytidine deaminase gene = settings: HL60, WiDr, Colo 201, Colo 205, CXF 280, DLD-1, MKN 45, MKN 1, MKN 28 and A549 cells; cited from earlier work
[1] = tested on: cytidine deaminase activity in FHC cells; experiment: cytidine deaminase activity in FHC cells; assay type: cell-based, human; settings: continuous exposure, period of 11 days, control 0.07±0.03 nmol/min/mg
Method: (§1) The cytidine deaminase activity in the cell extracts was determined by measuring the conversion of radiolabelled cytidine to […] and uracil. The assay is a combination of the methods described in J. Mejer and P. Nygaard, “Cytosine Arabinoside Phosphorylation and Deamination in Acute Myeloblastic Leukemia Cells”, Leukemia Research 2, 1978 pp. 127-131, and B. R. De Saint Vincent et al., “The Modulation of Thymidine Triphosphate Pool of Chinese Hamster Cells by dCMP Deaminase and UDP Reductase”, J. Biol. Chem. 255, 1980, pp. 162-167, which are hereby incorporated by reference.
(§2) The effect of administration of 1α, 25-dihydroxyvitamin D3 or seocalcitol (EB 1089) on growth of FHC cells was investigated. FHC cells are normal human colon epithelial cells (ATCC CRL-1831) considered to be a good model of normal human colon epithelium. The cells were grown in a culture medium supplemented with 10^−7 M 1α,25-dihydroxyvitamin D3 or seocalcitol for 14 days.
Similarly, cytidine deaminase and thymidine phosphorylase activity in FHC cells following continuous exposure to 1α,25-dihydroxyvitamin D3 or seocalcitol was determined as described in example 1. […]

[2] = tested on: thymidine phosphorylase (TP) activity in HT-29 cells; experiment: thymidine phosphorylase activity in extracts of treated HT-29 cells; assay type: cell-based, human; settings: 10^-7 M; for thymidine phosphorylase activity: at day 11 (control 0.395±0.062); for thymidine phosphorylase activity compared to isopropanol-treated cells: first 5 days
Method: (§3) HT-29 cells (a human colon cancer cell line) were grown in medium to which was added 0.0025% isopropanol as control, 10^−7 M 1α, 25-dihydroxyvitamin D3 or 10^−7 M seocalcitol, respectively. The medium was changed on days 1, 4, 6, 8, 11 and 13, each time with addition of isopropanol, 1α, 25-dihydroxyvitamin D3 or seocalcitol, as appropriate.
(§4) On each of the indicated days, cells from each culture were harvested, pelleted and frozen. For the cytidine deaminase and thymidine phosphorylase assays, the frozen cell pellet was thawed and resuspended in 150 μl of 0.1 M Tris-Hcl, pH 8.1. The cell suspension was sonicated for 2-5 seconds and centrifuged at 20000×g for 20 minutes at 4° C. 100 μl of cell extract was transferred to Eppendorf tubes containing 0.5 μl 1M DTT.
(§5) The thymidine phosphorylase activity was determined by measuring the conversion of radiolabelled thymidine to thymine. The assay method used was a slight modification of the method described in T. Sumizawa et al., “Thymidine Phosphorylase Activity Associated with Platelet-Derived Endothelial Cell Growth Factor”, J. Biochem. 114, 1993, pp. 9-14, which is hereby incorporated by reference.
10 μl 50 mM sodium phosphate, pH 7.0
10 μl mM Tris-HCl, pH 7.6
2 μl ^3H-thymidine (5 Ci/mmol, 1 mCi/ml)
The substrate and product were separated on PEI-cellulose plates placed in about 1.5 cm of water.

[3] = tested on: thymidine phosphorylase activity in FHC cells; experiment: thymidine phosphorylase activity in FHC cells; assay type: cell-based, human; settings: continuous exposure, period of 11 days, control 0.25±0.04 nmol/min/mg
Method: as §5, §2
Similarly, cytidine deaminase and thymidine phosphorylase activity in FHC cells following continuous exposure to 1α,25-dihydroxyvitamin D3 or seocalcitol was determined as described in example 1. The cytidine deaminase and thymidine phosphorylase activity in control cells remained constant at 0.07±0.03 and 0.25±0.04 nmol/min/mg, respectively, over a period of 11 days and was unaffected by the presence of 1α,25-dihydroxyvitamin D3 or seocalcitol.

[4] = tested on: cytidine deaminase (CDA) activity in HT-29 cells; experiment: cytidine deaminase activity in extracts of treated HT-29 cells; assay type: cell-based, human; settings: 10^-7 M; for increase in cytidine deaminase activity: incubation at day 1 for 24 hours, versus isopropanol control
Method: as §3, §4, §1
The assay mixture has a total volume of 50 μl and the following composition:
2 μl ^3H-cytidine (18.2 Ci/mmol, 1 mCi/ml)
The substrate and products were separated on PEI-cellulose plates placed in about 1.5 cm of a mixture of isopropanol:water:ethyl acetate 41:22:117.

FHC cells = experiment: growth of FHC cells; assay type: cell-based; settings: normal human colon epithelial cells, 10^-7 M, 14 days
Method: as §2

[5] = tested on: cytidine deaminase in HL60 cells; settings: human promyeolytic cell line HL60; cited from earlier work
solid tumours = settings: clinical efficacy, limited by dose-limiting toxicity; cited from earlier work
[6] = tested on: estrogen receptor-negative MDA-MB-231 tumours; settings: in combination with doxifluridine, MDA-MB-231 tumours in athymic mice; cited from earlier work
[7] = tested on: cell growth and enzymatic activity; experiment: 2 hours versus continuous exposure (previous experiment); assay type: cell-based; settings: 10^-7 M
[8] = after 8 days of incubation, p<0.0001

C=C1/C(=C\C=C2/CCC[C@]3(C)[C@@H]([C@H](C)CCCC(C)(C)O)CC[C@@H]23)C[C@@H](O)C[C@@H]1O [1α,25-dihydroxyvitamin D3]
expression of the cytidine deaminase gene (cytidine deaminase gene): upregulates
cytidine deaminase activity in FHC cells [1]: unaffected
thymidine phosphorylase activity [2]: 0.323 nmol/min/mg
thymidine phosphorylase activity compared to isopropanol-treated cells [2]: the same as in isopropanol-treated cells
thymidine phosphorylase activity in FHC cells [3]: unaffected
maximum increase in cytidine deaminase activity [4, 8]: 15.5 fold
increase in cytidine deaminase activity [4]: 4.5 fold
growth of FHC cells compared to untreated control cells (FHC cells): not significantly affected
cytidine deaminase in HL60 cells [5]: causes an increase

O=c1[nH]cc(F)c(=O)[nH]1 [5-FU, 5-fluorouracil]
overall response rate (solid tumours): 10-30%

C=C1/C(=C\C=C2/CCC[C@]3(C)[C@@H]([C@H](C)OCCC(C)(C)O)CC[C@@H]23)C[C@@H](O)C[C@@H]1O [22-oxacalcitriol]
effect of combination treatment versus 22-oxacalcitriol alone [6]: did not exceed that of treatment with 22-oxacalcitriol alone

C=C1/C(=C\C=C2/CCC[C@]3(C)[C@@H]([C@H](C)/C=C/C=C/C(O)(CC)CC)CC[C@@H]23)C[C@@H](O)C[C@@H]1O [seocalcitol]
effect on cell growth and enzymatic activity of 2 hours of exposure versus continuous exposure [7]: equivalent effect
cytidine deaminase activity in FHC cells [1]: unaffected
thymidine phosphorylase activity [2]: 0.672 nmol/min/mg
thymidine phosphorylase activity compared to isopropanol-treated cells [2]: the same as in isopropanol-treated cells
thymidine phosphorylase activity in FHC cells [3]: unaffected
increase in cytidine deaminase activity relative to that observed for 1α,25-dihydroxyvitamin D3 [4, 8]: twice
increase in cytidine deaminase activity [4]: 4.9 fold
growth of FHC cells compared to untreated control cells (FHC cells): not significantly affected
